Molecules are shown by their SMILES.

One assay concerns HeLa. Briefly: Proliferation assay (crystal violet), HeLa. The class given is cell-based. To be noted: Homo sapiens, HeLa, 96 h, HeLa cells; 4 days incubation; crystal violet staining; read-out: IC50 inhibition of proliferation, HeLa. The essentials:
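Crystal violet proliferation readout, 4-day compound incubation, 0.001–10 μM, final DMSO 0.5%. Zero-point plate stained at time of dosing set as 0%, untreated control as 100%; IC50 via 4-parameter fit.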

In assay [1] the target is T1, catalytic domain of human Bub1 (amino acids 704-1085) (Homo sapiens, UniProt O43683).
T1 construct: catalytic domain of human Bub1 (amino acids 704-1085); His6 (N); made in house; host or cells: insect cells (Hi5)
The assay is described as follows: Bub1 kinase assay (TR-FRET). The class given is biochemical. To be noted: 10 μM ATP, avg, read-out: Bub1 avg (IC50 [mol/l]). The essentials: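 Readout is the 665/620 nm TR-FRET ratio from anti-phosphoserine antibody, Eu-labelled anti-mouse IgG and streptavidin-XL665, scaled between no-enzyme and uninhibited controls. Reaction: 1 μM biotinylated peptide, 10 μM ATP, 60 min, 22 °C, after 15 min compound preincubation with His6-Bub1 (704-1085, insect-expressed, ~200 ng/ml).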
On the technique in general: In TR-FRET formats the signal depends on donor and acceptor labels being close together.

T1 sequence (O43683 704-1085): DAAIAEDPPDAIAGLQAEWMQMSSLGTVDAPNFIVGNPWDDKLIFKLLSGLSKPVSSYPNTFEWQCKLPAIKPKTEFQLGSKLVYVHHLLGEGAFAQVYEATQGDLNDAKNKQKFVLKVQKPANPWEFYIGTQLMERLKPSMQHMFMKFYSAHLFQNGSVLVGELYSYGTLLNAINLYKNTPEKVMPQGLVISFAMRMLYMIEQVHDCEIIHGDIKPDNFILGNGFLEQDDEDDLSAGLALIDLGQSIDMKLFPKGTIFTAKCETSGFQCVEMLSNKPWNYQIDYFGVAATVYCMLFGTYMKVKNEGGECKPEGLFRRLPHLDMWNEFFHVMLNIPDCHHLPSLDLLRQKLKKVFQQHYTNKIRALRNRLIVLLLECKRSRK

`Cc1nsc(Nc2cncc(C(F)(F)F)n2)c1C(=O)Nc1ccc(OC2CCCN(C(=O)OC(C)(C)C)C2)nc1` (stereo not drawn) [Example 189, tert-butyl 3-[(5-{[(3-methyl-5-{[6-(trifluoromethyl)pyrazin-2-yl]amino}-1,2-thiazol-4-yl)carbonyl]amino}pyridin-2-yl)oxy]piperidine-1-carboxylate]: the IC50 in the assay with HeLa is 0.94 µM; in assay [1], greater than 20 µM.
The like results for `Cc1nsc(Nc2cnc(C(F)(F)F)cn2)c1C(=O)Nc1ccc(C(=O)NCCN2CCCC(F)C2)cc1` (stereo not drawn) [Example 213, N-(4-{[2-(3-fluoropiperidin-1-yl)ethyl]carbamoyl}phenyl)-3-methyl-5-{[5-(trifluoromethyl)pyrazin-2-yl]amino}-1,2-thiazole-4-carboxamide] were, in that order, 2.5 µM and 17 µM.
The like results for `Cc1nsc(Nc2cnc3ccccc3n2)c1C(=O)Nc1ccc(Oc2ccc(SC(F)(F)F)cc2)nc1` [Example 233, 3-methyl-5-(quinoxalin-2-ylamino)-N-(6-{4-[(trifluoromethyl)sulfanyl]phenoxy}pyridin-3-yl)-1,2-thiazole-4-carboxamide] were, in that order, greater than 10 µM and greater than 20 µM.

The record behind these values is patent publication US20170334899A1, “AMINO-SUBSTITUTED ISOTHIAZOLES” (Bayer Pharma Aktiengesellschaft, priority 2014, published 2017).
